Converted amounts (≈) assume the structure as drawn. “Also recorded” adds a separate entry of the source.
Assays:
[1] = system: Psilocybin Induced Head Twitches in Mice; assay: Psilocybin-induced head-twitch response in mice, 5-HT2A antagonist given i.v. after psilocybin; type: in vivo, C57BL/6J mice; details: for Result (suppression of psilocybin-induced head twitch): 5HT2A antagonist i.v. at T=7 min, summary of Examples 13-21; for effect on psilocybin-induced head twitch (summary of Examples 13-21): administered after psilocybin, compared to vehicle-treated mice, dose not given; for suppression of psilocybin-induced head-twitch response: monitored until 40 min
Description: The head-shake response is elicited by a wide variety of known hallucinogens such as LSD, psilocybin, psilocin, N,N-dimethyltryptamine (DMT), and mescaline as well as serotonin-releasing agents and direct 5-HT2 agonists. […] Later studies have confirmed 5-HT2A receptors are the primary, direct mediators of the response and that the headshake response in rats is essentially the same as head-twitches in mice, at least in regards to similarity in appearance and 5-HT2A receptor dependence.
Male C57BL/6J mice (approximately 25 g) were group housed. Animals were maintained under a 12 h light/dark cycle, at 23° C. with humidity controlled.
Psilocybin was formulated in saline at a concentration of 0.4 mg/mL to give a dose of 2 mg/kg when administered i.p. in a 5 mL/kg dosing volume.
(§1) At T=−60 min, C57BL/6J mice were individually housed into transparent observation cages with bedding removed and left to habituate. At T=−3 min, mice were placed into heated cages at 40° C. At T=0 h, groups of 3 mice were dosed intraperitoneally with psilocybin (2 mg/kg). Following dosing, mice were replaced into the heated cages and head-twitch responses continuously scored for 7 min. After 7 min, mice were intravenously dosed via the lateral tail vein with either vehicle 1 (saline) or volinanserin 1 mg/kg in 5 mL/kg dosing volumes. Mice were replaced into the observation cages and head twitch behavior were monitored until 40 min after agonist dosing. Cumulative head-twitches were measured every 2 minutes until 40 minutes after agonist dosing.
as §1, with “min. […]” for “min. After 7 min, mice were intravenously dosed via the lateral tail vein with either vehicle 1 (saline) or volinanserin 1 mg/kg in 5 mL/kg dosing volumes.”, “behavior was” for “behavior were”, “Cumulative head-twitch behavior was” for “Cumulative head-twitches were”
as §1, with “min. […]” for “min. After 7 min, mice were intravenously dosed via the lateral tail vein with either vehicle 1 (saline) or volinanserin 1 mg/kg in 5 mL/kg dosing volumes.”, “behavior was” for “behavior were”, “Cumulative head-twitch behavior was” for “Cumulative head-twitches were”
as §1, with “min. […]” for “min. After 7 min, mice were intravenously dosed via the lateral tail vein with either vehicle 1 (saline) or volinanserin 1 mg/kg in 5 mL/kg dosing volumes.”, “behavior was” for “behavior were”, “Cumulative head-twitch behavior was” for “Cumulative head-twitches were”
as §1, with “min. […]” for “min. After 7 min, mice were intravenously dosed via the lateral tail vein with either vehicle 1 (saline) or volinanserin 1 mg/kg in 5 mL/kg dosing volumes.”, “behavior was” for “behavior were”, “Cumulative head-twitch behavior was” for “Cumulative head-twitches were”

[2] = Dynamic vapor sorption (DVS) analysis, hygroscopicity; type: physicochemical; details: for overall water uptake (DVS): 5-95% RH; for solid form of post-DVS specimen (XRPD): after DVS 5-95-5% RH
Experimental: (§2) DVS analysis was carried out using a TA Instruments Q5000 Dynamic Vapor Sorption analyzer. The instrument was calibrated with standard weights and a sodium bromide standard for humidity. Approximately 10-25 mg of sample was loaded into a metal-coated quartz pan for analysis. The sample was analyzed at 25° C. with a maximum equilibration time of one hour in 10% relative humidity (RH) steps from 5 to 95% RH (adsorption cycle) and from 95 to 5% RH (desorption cycle). The movement from one step to the next occurred either after satisfying the equilibrium criterion of 0.01% weight change or, if the equilibrium criterion was not met, after one hour. The percent weight change values were calculated using Microsoft Excel®.
as §2, with “Dynamic Vapor Sorption (DVS)” for “DVS”, “is” for “was”, “is” for “were”, “Excel.” for “Excel®.”

[3] = Estimated aqueous solubility of O-acetyl psilocin salts (aliquot addition method); details: bounds printed as 'Small particles present at ≤ x mg/mL'
Experimental: Whether dissolution had occurred was judged by visual inspection after addition of each solvent aliquot. […] Solubility numbers were calculated by dividing the weight of the sample by the total amount of solvent used to dissolve the sample. […] The solubility number is expressed as “greater than or equal to” if dissolution occurred on addition of the first solvent aliquot.

[4] = Hygroscopicity test in relative humidity (RH) jars; type: physicochemical
Experimental: Solids deliquesced within approx. 1 hour of exposure to elevated relative humidity. The sample was capped and placed in a freezer for storage.

[5] = Estimated solubilities of psilocybin (solvent aliquot addition, visual inspection); type: physicochemical; details: room temperature
Description: Solubilities of psilocybin in a few solvents were estimated.

[6] = C57BL/6J mice, psilocybin 2 mg/kg i.p. at T=0, head twitches scored to 40 min
[7] = antagonist 1 mg/kg i.v. 7 min after psilocybin 2 mg/kg i.p.
[8] = antagonist 4 mg/kg i.v. 7 min after psilocybin 2 mg/kg i.p.

In the case of `COc1ccc(NC(=O)Nc2ccc(F)cc2F)cc1-c1c(Br)cnn1C` [nelotanserin], the “Result (suppression of psilocybin-induced head twitch)” value [1, 6] is reported as “Partial suppression of head twitch,”, the “Result (suppression of psilocybin-induced head twitch) at high dose” value ([1]; C57BL/6J mice, psilocybin 2 mg/kg i.p. at T=0, antagonist at high dose (nelotanserin 4 mg/kg i.v.) at T=7 min, head twitches scored to 40 min) is reported as “full suppression at high dose” and the “effect on psilocybin-induced head twitch (summary of Examples 13-21)” value (“effect on psilocybin-induced head twitch” below) [1] is reported as “partial suppression”. The “suppression of psilocybin-induced head-twitch response” value [1, 7] was “partially suppressed” and the “suppression of psilocybin-induced head-twitch response” value [1, 8] was “completely suppressed; also recorded: completed suppressed”.

For `CC(=O)Oc1cccc2[nH]cc(CCN(C)C)c12.O=C(O)/C=C/C(=O)O` [O-acetylpsilocin-fumarate Form A, O-acetylpsilocin-fumarate], the “overall water uptake (DVS)” value [2] was “approx. 0.1%” and the “hygroscopicity (DVS), in words” value ([2]; whole RH range (5-95% RH)) was “non-hygroscopic”.

For `Cc1nc2sccn2c(=O)c1CCN1CCC(=C(c2ccc(F)cc2)c2ccc(F)cc2)CC1` [ritanserin], the “Result (suppression of psilocybin-induced head twitch)” value [1, 6] was “Full suppression of head twitch”, the “effect on psilocybin-induced head twitch” value [1] was “full ending” and the “suppression of psilocybin-induced head-twitch response” value [1, 7] was “completely suppressed”.

For Maleate, the “Water solubility” value [3] was greater than 50000 µg/mL.

With `CC(=O)Oc1cccc2[nH]cc(CCN(C)C)c12.O=C(O)C(O)C(O)C(=O)O` [L-tartrate salt, Form A, O-Acetyl Psilocin Tartrate] the “hygroscopicity (DVS), in words” value ([2]; 5-85% RH) was “non-hygroscopic”, the “hydrate formation on DVS” value ([2]; above 85% RH) was “consistent with hydrate formation” and the “water uptake (DVS)” value ([2]; above 85% RH) was “approx. 6%”. For the same compound, the “hydrate formation on DVS” value ([2]; above 85% RH, listed as Tartrate A) was “possible hydrate formation” and the “solid form of post-DVS specimen (XRPD)” value [2] was “consistent with Form A by XRPD analysis and exhibited additional diffraction peaks”.

With `O=C(c1ccc(F)cc1)C1CCN(CCn2c(=O)[nH]c3ccccc3c2=O)CC1` [ketanserin] the “suppression of psilocybin-induced head-twitch response” value ([1]; antagonist 2 mg/kg i.v. 7 min after psilocybin 2 mg/kg i.p.) was “completely suppressed”.

In the case of `O=c1[nH]c2ccccc2n1CCN1CCN(c2cccc(C(F)(F)F)c2)CC1` [flibanserin], the “Result (suppression of psilocybin-induced head twitch)” value [1, 6] is reported as “Partial suppression of head twitch”, the “effect on psilocybin-induced head twitch” value [1] is reported as “partial suppression” and the “suppression of psilocybin-induced head-twitch response” value [1, 7] is reported as “partially suppressed”. For the same compound, the “suppression of psilocybin-induced head-twitch response” value [1, 8] was “partially suppressed”.

In the case of `CC(=O)Oc1cccc2[nH]cc(CCN(C)C)c12.O=P(O)(O)O` [phosphate salt (Forms A+B), O-acetyl psilocin phosphate], the “hygroscopicity by RH jars, in words” value ([4]; RH jars) is reported as “low”.

For `CC(=O)Oc1cccc2[nH]cc(CCN(C)C)c12.O=C(O)C[C@H](O)C(=O)O` [L-malate salt, Form B, O-Acetyl Psilocin Malate], the “hygroscopicity (DVS), in words” value ([2]; 5-85% RH) was “non-hygroscopic”, the “hydrate formation on DVS” value ([2]; above 85% RH) was “no hydrate formation occurred” and the “hydrate formation on DVS” value ([2]; above 85% RH, listed as Malate B) was “possible hydrate formation”. The “water uptake (DVS)” value ([2]; above 85% RH, unit not given) was “approx. 4.500” and the “solid form of post-DVS specimen (XRPD)” value [2] was “consistent with Form B”.

For `CC(=O)Oc1cccc2[nH]cc(CCN(C)C)c12.O=C(O)C(O)C(O)C(=O)O` [L-tartrate, Form A], the hygroscopicity ([2]; 5-85% RH, DVS) was “non-hygroscopic”, the “hydrate formation (DVS)” value ([2]; DVS, at high RH) was “resulting in hydrate” and the Water uptake ([2]; above 85% RH, DVS) was roughly 6%. For the same compound, the hygroscopicity ([2]; above 85% RH, DVS) was “hygroscopic”.

With `CC(=O)Oc1cccc2[nH]cc(CCN(C)C)c12.CS(=O)(=O)O` [mesylate salt, Form A, O-Acetyl Psilocin Mesylate] the “hygroscopicity (DVS), in words” value ([2]; 5-55% RH) was “non-hygroscopic”, the “water uptake (DVS)” value ([2]; above 55% RH) was 40% and the “solid form of post-DVS specimen (XRPD)” value [2] was “liquid”.

In the case of `CC(=O)Oc1cccc2[nH]cc(CCN(C)C)c12.O=C(O)/C=C\C(=O)O` [maleate salt, Form A, O-acetyl psilocin maleate], the “overall water uptake (DVS)” value [2] is reported as “approx. 0.8%”, the “solid form of post-DVS specimen (XRPD)” value [2] is reported as “consistent with Form A” and the “hygroscopicity (DVS), in words” value ([2]; whole RH range (5-95% RH)) is reported as “non-hygroscopic”. The “hygroscopicity (DVS), in words” value ([2]; whole RH range (5-95% RH), listed as maleate salt) was “minimal water sorption”.

Work on `CC(=O)Oc1cccc2[nH]cc(CCN(C)C)c12.Cl` [O-acetyl psilocin hydrochloride] yielded a time to deliquescence ([4]; open vial in 75% RH jar) of no more than 1 h.

For `CN(C)CCc1c[nH]c2cccc(OP(=O)(O)O)c12` [psilocybin], the solubility ([5]; organic solvent or mixture, thermodynamic from solid, 1,4-dioxane) was less than 1000 µg/mL, the solubility ([5]; organic solvent or mixture, thermodynamic from solid, 2-propanol (2-PrOH)) was less than 1000 µg/mL and the solubility ([5]; organic solvent or mixture, thermodynamic from solid, Acetone) was less than 1000 µg/mL. For the same compound, the solubility ([5]; organic solvent or mixture, thermodynamic from solid, Acetonitrile (ACN)) was less than 1000 µg/mL, the solubility ([5]; organic solvent or mixture, thermodynamic from solid, Dichloromethane (DCM)) was less than 1000 µg/mL and the solubility ([5]; organic solvent or mixture, thermodynamic from solid, Ethanol (EtOH)) was less than 1000 µg/mL. The solubility ([5]; organic solvent or mixture, thermodynamic from solid, Ethyl acetate (EtOAc)) was less than 1000 µg/mL, the solubility ([5]; organic solvent or mixture, thermodynamic from solid, Methanol (MeOH)) was 11000 µg/mL (≈ 38.7 mM) and the solubility ([5]; organic solvent or mixture, thermodynamic from solid, Tetrahydrofuran (THF)) was less than 1000 µg/mL. The solubility ([5]; thermodynamic from solid, Water) was 4000 µg/mL (≈ 14.1 mM) and the “solid form of post-DVS specimen (XRPD)” value [2] was “converted to a hydrate Form B; also recorded: Crystalline Form B (hydrate)”.

For `N#Cc1c[nH]c2c(C(=O)N3CCN(CCc4ccc(F)cc4)CC3)cccc12` [pruvanserin], the “Result (suppression of psilocybin-induced head twitch)” value [1, 6] was “Full suppression of head twitch”, the “effect on psilocybin-induced head twitch” value [1] was “full ending” and the “suppression of psilocybin-induced head-twitch response” value [1, 7] was “completely suppressed”.

In the case of `COc1cccc([C@H](O)C2CCN(CCc3ccc(F)cc3)CC2)c1OC` [volinanserin], the “Result (suppression of psilocybin-induced head twitch)” value [1, 6] is reported as “Full suppression of head twitch”, the “effect on psilocybin-induced head twitch” value [1] is reported as “full ending” and the “suppression of psilocybin-induced head-twitch response” value [1, 7] is reported as “completely suppressed”.

Reference: patent US11945832B2, “Psilocybin and O-acetylpsilocin, salts and solid state forms thereof” (Terran Biosciences Inc., priority 2021, dated 2024)
